Data on eight compounds can be found in patent US20130231311A1, “NOVEL FORMULATIONS FOR TREATMENT OF MIGRAINE” (ZOGENIX, INC., priority 2008, published 2013).

“And” between values parts separate entries of the source, which are not always exact repeats. Equal values may be shown once. Read-outs that look alike come from different tables or passages of the source.

Data set [1] has as its system migraine. As to conditions: cited from earlier work.
For data set [2] the following is noted: in vivo; cited from earlier work.
The test system of data set [3] is migraine. As to conditions: in vivo; cited from earlier work.
The nature of data set [4]: time to peak plasma concentration of triptans (FIG. 3). As to conditions: in vivo.
Data set [5] deals with migraine. The data set is described as follows: pain relief at 2 hours, injected versus oral sumatriptan (FIG. 2). Format: in vivo. As to conditions: via injection, 107 minutes after maximum plasma concentration. From the text: (§1) FIG. 2 is a Table comparing pharmacokinetic and pharmacodynamic parameters of subcutaneously injected and oral sumatriptan.
(§2) FIG. 2 compares pharmacokinetic parameters of injected sumatriptan with oral sumatriptan.

Data set [6] is described as follows: pharmacokinetic parameters of injected versus oral sumatriptan (FIG. 2). As to conditions: injected vs oral; injected dose is 3% of the oral dose. Format: in vivo.
Text: as §1, §2

On to `O=C(O)Cc1ccccc1Nc1c(Cl)cccc1Cl` [diclofenac], for which the effectiveness in the data set on migraine [1] (intramuscular) is 70% and 88%; with migraine [1] (oral), 44%.
`CN(C)CCc1c[nH]c2ccc(C[C@H]3COC(=O)N3)cc12` [zolmitriptan]: the half life in data set [2] was 3 h. The “pain relief at two hours compared with rizatriptan” value in the data set with migraine [3] is reported as “less than that of rizatriptan”.
As to `CN1CCC[C@@H]1Cc1c[nH]c2ccc(CCS(=O)(=O)c3ccccc3)cc12` [eletriptan], in data set [2], the half life was 4 h.
On to `CN(C)CCc1c[nH]c2ccc(CS(=O)(=O)N3CCCC3)cc12` [almotriptan], for which the half life in data set [2] was 3 to 4 h.
Consider `CN(C)CCc1c[nH]c2ccc(Cn3cncn3)cc12` [rizatriptan], for which, in data set [4], the “time to peak plasma concentration, earlier than sumatriptan and zolmitriptan” value was approximately 1 h. Moreover, the half life in data set [2] is 2 to 3 h.
Take `CN[C@@H]1CCc2[nH]c3ccc(C(N)=O)cc3c2C1` [frovatriptan]: the half life in data set [2] was 26 h.
As for `CNS(=O)(=O)Cc1ccc2[nH]cc(CCN(C)C)c2c1` [sumatriptan], in the data set on migraine [5], the “pain relief at 2 hours, injected vs oral dose” value is reported as “better for the injected dose than for the oral dose”. Moreover, the half life in data set [2] was 2.5 h. Also, in data set [6], the “AUC relative to oral dose” value is recorded as “about ⅕” and the “maximum concentration relative to oral dose” value is recorded as “approximately half”. For the same compound, the “pain relief at two hours compared with rizatriptan” value with migraine [3] is reported as “less than that of rizatriptan”.
Consider `CNS(=O)(=O)CCc1ccc2[nH]cc(C3CCN(C)CC3)c2c1` [naratriptan], for which the half life in data set [2] was 5 to 8 h.
